Source: article PMC6649263 (ACS Omega, 2019)

Key:
Type in all cases: biochemical
[1] = target: electric eel AChE (Electrophorus electricus, UniProt O42275); experiment: Cholinesterase enzyme inhibition assay
[2] = target: hGSK-3β (Homo sapiens, UniProt P49841); experiment: GSK-3β Kinase-Glo enzyme inhibition assay, with enzyme kinetics
[3] = target: horse serum BChE (Equus caballus, UniProt P81908); experiment: Cholinesterase enzyme inhibition assay
[4] = target: human recombinant β-secretase (BACE1) (Homo sapiens, UniProt P56817); experiment: BACE1 FRET enzyme inhibition assay, with enzyme kinetics; conditions: IC50 BACE1, mean ± SD, triplicate
Chain of human recombinant β-secretase (BACE1) (P56817 46-501): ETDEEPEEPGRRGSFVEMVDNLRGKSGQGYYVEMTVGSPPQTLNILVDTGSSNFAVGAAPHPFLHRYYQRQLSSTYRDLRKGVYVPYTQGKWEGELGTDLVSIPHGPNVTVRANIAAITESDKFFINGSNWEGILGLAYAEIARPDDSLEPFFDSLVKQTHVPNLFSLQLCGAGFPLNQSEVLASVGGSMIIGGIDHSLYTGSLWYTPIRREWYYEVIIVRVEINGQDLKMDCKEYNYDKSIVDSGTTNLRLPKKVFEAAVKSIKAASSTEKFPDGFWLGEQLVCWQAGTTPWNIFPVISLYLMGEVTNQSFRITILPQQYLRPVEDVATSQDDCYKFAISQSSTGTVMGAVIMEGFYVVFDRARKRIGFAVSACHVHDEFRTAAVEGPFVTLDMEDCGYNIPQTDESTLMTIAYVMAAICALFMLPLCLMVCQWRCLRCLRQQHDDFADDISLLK

Chain of electric eel AChE (O42275 24-633): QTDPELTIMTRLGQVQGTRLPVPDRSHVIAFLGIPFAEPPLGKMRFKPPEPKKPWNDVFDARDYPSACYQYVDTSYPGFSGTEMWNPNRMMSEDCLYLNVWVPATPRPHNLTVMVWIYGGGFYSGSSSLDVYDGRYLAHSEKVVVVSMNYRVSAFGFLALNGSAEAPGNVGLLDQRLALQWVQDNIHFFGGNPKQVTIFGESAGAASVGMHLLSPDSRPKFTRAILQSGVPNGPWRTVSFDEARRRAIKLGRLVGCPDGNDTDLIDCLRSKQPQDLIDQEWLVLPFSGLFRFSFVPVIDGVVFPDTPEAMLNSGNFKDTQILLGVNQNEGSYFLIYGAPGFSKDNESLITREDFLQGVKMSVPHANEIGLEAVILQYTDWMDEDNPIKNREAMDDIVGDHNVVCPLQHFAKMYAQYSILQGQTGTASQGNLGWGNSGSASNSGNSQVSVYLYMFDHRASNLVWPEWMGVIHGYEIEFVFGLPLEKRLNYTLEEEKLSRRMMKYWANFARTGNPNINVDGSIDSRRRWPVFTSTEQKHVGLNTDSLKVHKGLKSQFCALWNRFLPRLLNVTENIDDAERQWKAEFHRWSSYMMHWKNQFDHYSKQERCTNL
Chain of horse serum BChE (P81908 whole entry): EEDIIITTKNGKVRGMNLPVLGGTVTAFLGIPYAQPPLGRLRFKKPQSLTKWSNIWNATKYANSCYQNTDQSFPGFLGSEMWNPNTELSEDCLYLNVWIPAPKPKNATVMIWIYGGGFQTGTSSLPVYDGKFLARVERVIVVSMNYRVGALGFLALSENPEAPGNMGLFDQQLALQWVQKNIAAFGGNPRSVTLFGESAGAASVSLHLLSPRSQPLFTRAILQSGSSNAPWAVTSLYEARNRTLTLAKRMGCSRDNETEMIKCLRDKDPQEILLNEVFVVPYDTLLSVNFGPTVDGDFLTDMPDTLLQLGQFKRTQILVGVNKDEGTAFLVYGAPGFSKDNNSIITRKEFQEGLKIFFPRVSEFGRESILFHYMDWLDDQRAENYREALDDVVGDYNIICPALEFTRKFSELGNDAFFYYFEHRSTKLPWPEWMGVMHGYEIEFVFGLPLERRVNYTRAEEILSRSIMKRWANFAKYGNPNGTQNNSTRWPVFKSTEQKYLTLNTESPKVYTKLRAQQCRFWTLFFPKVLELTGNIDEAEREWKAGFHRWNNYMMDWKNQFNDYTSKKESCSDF
Chain of hGSK-3β (P49841 whole entry): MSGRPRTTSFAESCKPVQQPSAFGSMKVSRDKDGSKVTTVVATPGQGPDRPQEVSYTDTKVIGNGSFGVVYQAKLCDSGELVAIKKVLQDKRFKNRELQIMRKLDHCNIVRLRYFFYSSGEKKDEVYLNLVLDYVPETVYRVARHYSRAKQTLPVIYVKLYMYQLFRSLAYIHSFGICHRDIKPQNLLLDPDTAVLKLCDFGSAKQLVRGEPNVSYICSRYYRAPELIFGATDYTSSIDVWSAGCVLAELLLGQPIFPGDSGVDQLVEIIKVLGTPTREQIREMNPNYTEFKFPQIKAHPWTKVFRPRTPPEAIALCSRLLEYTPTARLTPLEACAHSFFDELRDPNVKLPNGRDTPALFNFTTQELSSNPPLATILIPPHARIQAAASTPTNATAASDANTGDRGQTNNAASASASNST

| Structure (SMILES) | IC50 [1] | IC50 [2] | IC50 [3] | IC50 [4] |
| --- | --- | --- | --- | --- |
| CC(C)=CCC/C(C)=C/Cc1c(O)ccc2cc(-c3cc(O)cc(O)c3CC=C(C)C)oc12 [mulberrofuran D (1), mulberrofuran D] | 23 ± 1.15 µM | 8.12 ± 0.66 µM | 6.12 ± 1.41 µM | – |
| C[C@@]12C=C(c3c(O)cc(-c4cc5ccc(O)cc5o4)cc3O)C[C@@H](C1)c1ccc(O)cc1O2 [mulberrofuran H (3), mulberrofuran H] | > 200 µM | 4.41 ± 0.3 µM | 64.5 ± 3.1 µM | 1.04 ± 0.78 µM |
